Experimental data from patent US8058227B2, “Method of treating fibrosis in a subject in need thereof comprising administering a composition comprising a CSD” (Medical University of South Carolina, priority 2006, dated 2011).

Test system: bleomycin-induced lung fibrosis
Assay: Bleomycin-induced lung fibrosis and CSD treatment in mice
Format: in vivo, mouse
Experimental: Extract from each mouse was analyzed by Western blotting (25 μg total protein per lane) using antibodies against ph-ERK, caveolin-1, PKCε, ASMA, PKCα, tenascin-C, ph-Akt, ph-JNK, and actin (loading control); and the results quantified densitometrically (averages±s.e.m. are shown). The level of each protein in “Saline” was set to 100 arbitrary units. Actin levels (loading control) were similar in all four samples (not shown). Statistical significance: ns, not significant; **p<0.01; ***p<0.001.
Masson's Trichrome-stained sections from the experiments described in FIG. 11 were used to evaluate the effects of bleomycin and the CSD peptide on collagen expression (blue product) and lung tissue morphology. […] To generate the table, Masson's Trichrome-stained slides of lung tissue from all 41 mice sacrificed 14 days after saline or bleomycin treatment were scored blind in terms of the portion of the lung with abnormal morphology using an arbitrary scale: Normal morphology as in A=0, slightly altered morphology as in B=1, moderately altered morphology as in C=2, and severely altered morphology as in D 3. Bar in C=0.1 mm.
This procedure was approved by the MUSC Institutional Animal Care & Use Committee. Ten-week old, male CD 1 mice (Charles River, Boston, Mass.) were anesthetized and received bleomycin (Calbiochem, La Jolla, Calif.) or saline solution by intratracheal instillation as previously described (44). Two approaches were used for CSD peptide treatment. In both approaches the peptide treatment was initiated one day prior to bleomycin. In the first approach, Alzet pumps delivering 0.5 μl/h for 14 days of a 1 mM solution of CSD peptide were implanted into twelve mice; twelve additional mice received no pump. In the second approach twelve mice received daily intraperitoneal injections of 100 μl of a 0.15 mM solution of the CSD peptide for 14 days; twelve additional mice received the scrambled peptide. One day later, six mice from each group of twelve received intratracheal bleomycin, six received saline. After 14 days, lungs were harvested. Half of each set of lungs was fixed, sectioned, and stained with Masson's Trichrome Stain. The other half of each set of lungs was dissolved in SDS-PAGE sample buffer for Western blotting experiments. Because very similar results were obtained using the two approaches to CSD peptide treatment, results were pooled.
Student's t test was used to analyze protein expression levels in lung tissue samples obtained from normal individuals and from scleroderma patients. Protein expression levels for samples obtained from in vitro experiments and from mice were analyzed by two-way analysis of variance (ANOVA) followed by the Bonferroni post-test. For experiments in which the degree of tissue damage in mice treated with bleomycin was scored on an arbitrary scale, data was analyzed using the Mann-Whitney rank sum test. In all tests, results were regarded as statistically significant if p<0.05.

[1] = mouse lung tissue, Western blotting, 14 days

DGIWKASFTTFTVTKYWFYR [CSD peptide]
median weight loss (bleomycin-treated mice receiving peptide (30% in untreated mice)): 14 % of original weight | tissue damage and collagen deposition (bleomycin-treated mice, CSD peptide via Alzet pumps or intraperitoneal injection, 14 days, Masson's Trichrome): slight to moderate | survival and lung tissue morphology (bleomycin-treated mice, systemic treatment with the peptide): striking positive effect | expression of caveolin-1 itself (lung tissue of bleomycin-treated mice, Western blotting): did not affect | inhibition of bleomycin-induced decrease in PKCα [1]: about 50% | inhibition of bleomycin-induced decrease in PKCε [1]: at least 75% | inhibition of bleomycin-induced increase in ASMA [1]: at least 75% | inhibition of bleomycin-induced increase in ph-Akt [1]: at least 75% | inhibition of bleomycin-induced increase in ph-ERK [1]: at least 75% | inhibition of bleomycin-induced increase in ph-JNK [1]: at least 75% | inhibition of bleomycin-induced increase in tenascin-C [1]: at least 75%
